Data as given in ChEMBL document CHEMBL5321277, “Discovery and Mechanism Study of SARS-CoV-2 3C-like Protease Inhibitors with a New Reactive Group” (J Med Chem, 2023).

Columns and labels:
[1] = molecular target: T1, Replicase polyprotein 1ab (Severe acute respiratory syndrome coronavirus 2, UniProt P0DTD1); assay: Inhibition of N-terminal His6-tagged recombinant full length SARS-CoV-2 3CLpro expressed in Escherichia coli BL21(DE3) using MCA-AVLQSGFR-Lys(Dnp)-Lys-NH2 as fluorogenic substrate preincubated with compound for 10 mins followed by substrate addition by FRET assay
[2] = molecular target: Cathepsin B (Homo sapiens, UniProt P07858); assay: Inhibition of Cathepsin B (unknown origin) using Z-RR-AMC as fluorogenic substrate preincubated for 10 mins followed by substrate addition and measured for 10 mins by fluorescence based assay
[3] = molecular target: Replicase polyprotein 1ab (Severe acute respiratory syndrome coronavirus 2) (UniProt P0DTD1); assay: Inhibition of N-terminal His6-tagged recombinant full length SARS-CoV-2 3CLpro expressed in Escherichia coli BL21(DE3) assessed as Kobs, ratio of Kinact/Ki using MCA-AVLQSGFR-Lys(Dnp)-Lys-NH2 as fluorogenic substrate incubated for 3 hrs by FRET assay
[4] = molecular target: T2, Cathepsin G (Homo sapiens, UniProt P08311); assay: Inhibition of Cathepsin G (unknown origin) measured for 1 to 2 hrs by fluorescence based assay
T2 sequence (P08311 whole entry): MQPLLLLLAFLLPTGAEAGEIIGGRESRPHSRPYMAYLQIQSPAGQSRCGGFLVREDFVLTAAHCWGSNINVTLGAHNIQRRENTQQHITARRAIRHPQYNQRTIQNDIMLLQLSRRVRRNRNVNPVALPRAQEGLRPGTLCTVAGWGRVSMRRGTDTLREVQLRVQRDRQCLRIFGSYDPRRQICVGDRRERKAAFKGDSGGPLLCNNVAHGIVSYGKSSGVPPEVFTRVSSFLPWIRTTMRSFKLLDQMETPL

[5] = molecular target: T1, Replicase polyprotein 1ab; assay: Inhibition of N-terminal His6-tagged recombinant full length SARS-CoV-2 3CLpro expressed in Escherichia coli BL21(DE3) assessed as inhibition constant using MCA-AVLQSGFR-Lys(Dnp)-Lys-NH2 as fluorogenic substrate incubated for 3 hrs by FRET assay
[6] = molecular target: T1, Replicase polyprotein 1ab; assay: Inhibition of SARS-CoV-2 PLpro using RLRGG-AMC as fluorogenic substrate preincubated with compound for 30 mins followed by substrate addition by fluorescence based microplate reader assay
[7] = molecular target: Chymotrypsin (Homo sapiens, UniProt Q99895+P17538+P40313+Q6GPI1); assay: Inhibition of Chymotrypsin (unknown origin) using N-succinyl-AAPF-AMC as fluorogenic substrate preincubated for 10 mins followed by substrate addition and measured for 10 mins by fluorescence based assay; assay type: protein assay
[8] = molecular target: T3, Caspase-6 (Homo sapiens, UniProt P55212); assay: Inhibition of Caspase-6 (unknown origin)
T3 sequence (P55212 whole entry): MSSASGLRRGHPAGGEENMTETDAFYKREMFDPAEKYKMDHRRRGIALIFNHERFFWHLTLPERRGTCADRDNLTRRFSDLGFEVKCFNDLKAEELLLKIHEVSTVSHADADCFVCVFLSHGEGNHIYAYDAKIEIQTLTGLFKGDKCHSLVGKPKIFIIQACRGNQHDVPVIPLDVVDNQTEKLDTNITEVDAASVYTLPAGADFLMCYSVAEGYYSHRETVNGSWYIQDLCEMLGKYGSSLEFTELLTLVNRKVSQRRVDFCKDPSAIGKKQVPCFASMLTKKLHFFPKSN

[9] = molecular target: T4, Procathepsin L (Homo sapiens, UniProt P07711); assay: Inhibition of Cathepsin L (unknown origin) using Z-VVR-AMC as fluorogenic substrate preincubated for 10 mins followed by substrate addition and measured for 10 mins by fluorescence based assay
Target sequence in this assay (P07711 whole entry): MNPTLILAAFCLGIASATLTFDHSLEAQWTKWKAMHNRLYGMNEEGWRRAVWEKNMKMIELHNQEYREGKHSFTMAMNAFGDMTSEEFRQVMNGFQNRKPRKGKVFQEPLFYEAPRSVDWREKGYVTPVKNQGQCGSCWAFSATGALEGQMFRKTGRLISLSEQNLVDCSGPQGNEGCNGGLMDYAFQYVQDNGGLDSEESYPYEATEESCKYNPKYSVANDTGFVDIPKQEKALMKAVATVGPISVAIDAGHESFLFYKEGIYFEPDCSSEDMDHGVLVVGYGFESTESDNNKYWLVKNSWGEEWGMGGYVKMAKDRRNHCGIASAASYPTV

[10] = molecular target: T4, Procathepsin L; assay: Inhibition of Cathepsin L (unknown origin) using Z-VVR-AMC as fluorogenic substrate at 20 uM preincubated for 10 mins followed by substrate addition and measured for 10 mins by fluorescence based assay; conditions: time 20.0 min
Target sequence in this assay (P07711 114-333 limits assumed): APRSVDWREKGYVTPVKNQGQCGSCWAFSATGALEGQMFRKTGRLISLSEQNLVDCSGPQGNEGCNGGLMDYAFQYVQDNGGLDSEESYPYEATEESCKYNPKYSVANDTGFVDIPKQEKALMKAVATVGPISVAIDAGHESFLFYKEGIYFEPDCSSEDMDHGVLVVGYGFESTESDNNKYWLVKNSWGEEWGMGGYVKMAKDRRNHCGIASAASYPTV

[11] = tested on: SARS-CoV-2; assay: microbe, parasite or virus in culture; conditions: Severe acute respiratory syndrome coronavirus 2, B1.617.2 (Delta), Vero C1008, 24 h

For N#CSCC(=O)N1c2ccccc2Sc2ccc(Cl)cc21, which IC50 [1] is on record?
The IC50 was 0.524 µM.

Which results are given for N#CSCC(=O)N1c2ccccc2Sc2ccc(C#N)cc21?
IC50 [2]: > 50 µM; Kobs [3]: 1670 M⁻¹ s⁻¹; IC50 [4]: > 50 µM; Ki [5]: 18.1 µM; IC50 [6]: > 100 µM; IC50 [7]: > 100 µM; IC50 [8]: > 50 µM; IC50 [9]: > 100 µM; IC50 [1]: 0.322 µM

Which IC50 [1] does the source give for CCC(=O)c1ccc2c(c1)N(C(=O)CSC#N)c1ccccc1S2 here?
Its IC50 is 3.33 µM.

Which IC50 [2] does the source give for N#CSCC(=O)N1c2ccccc2CCc2ccccc21 here?
Its IC50 is greater than 50 µM.

What about the Kobs [3] of the same molecule?
The Kobs was 327 M⁻¹ s⁻¹.

And the IC50 [4]?
The IC50 was greater than 50 µM.

What about the Ki [5] of the same molecule?
Its Ki is 43.6 µM.

And the IC50 [6]?
Its IC50 is greater than 100 µM.

What about the IC50 [7] of the same molecule?
The IC50 was greater than 100 µM.

What about the inhibition [10] of the same molecule?
Its inhibition is 70.3%.

And the IC50 [8]?
Its IC50 is greater than 50 µM.

And the IC50 [1]?
The IC50 was 2.21 µM.

For N#CSCC(=O)N1c2ccccc2Oc2ccccc21, which EC50 [11] is on record?
Its EC50 is 5.38 µM.

And the IC50 [1]?
The IC50 was 3.96 µM.

For CC(=O)c1ccc2c(c1)N(C(=O)CSC#N)c1ccccc1S2, which IC50 [1] is on record?
The IC50 was 1.06 µM.

N#CSCC(=O)N1c2ccccc2Sc2ccccc21 was tested. Which IC50 [1] did it give?
Its IC50 is 1.85 µM.

Which results are given for N#CSCC(=O)N1c2ccccc2Sc2ccc(C(F)(F)F)cc21?
EC50 [11]: 3.14 µM; IC50 [1]: 4.6 µM

How did the IC50 [1] turn out when COc1ccc2c(c1)N(C(=O)CSC#N)c1ccccc1S2 was run?
The IC50 was 2.9 µM.

How did the IC50 [1] turn out when CCSc1ccc2c(c1)N(C(=O)CSC#N)c1ccccc1S2 was run?
The IC50 was 2.64 µM.

With N#CSCC(=O)N1c2ccccc2CCc2ccc(Cl)cc21 as the molecule, how does the Ki [5] read?
Its Ki is 24.9 µM.

And the EC50 [11]?
The EC50 was 2.5 µM.

What about the IC50 [1] of the same molecule?
The IC50 was 0.478 µM.
